Data reported in ChEMBL document CHEMBL1201862, “PubChem BioAssay data set” (2004).
Blank lines part the entries; values can stand above or below the compound they belong to. Calls of active or inactive are those of the source.

Key:
[1] = HEp-2 cell cytotoxicity, dose response, cytotoxicity control for RSV inhibitor project, HTS (AID 2410); assay type: functional; settings: human respiratory syncytial virus
[2] = cytotoxicity toward NIH3T3 fibroblasts, dose response, counter-screen, cell-based, ATP luminescence, mouse fibroblasts (AID 2010); assay type: functional;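 note: cells exposed to compound for about 90 hours before reading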
[3] = inhibitors of intracellular T. cruzi replication, confirmation, NIH3T3 host cells, beta-gal luminescence (AID 2044); assay type: functional, cell-based;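 note: intracellular parasites grown in NIH/3T3 mouse fibroblasts as host cells; luminescent beta-galactosidase reporter signal from transgenic T. cruzi replicating inside host cells; inhibitors lower the luminescence signal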
Streptococcus = assay: Group A Streptococcus viability loss, dose response, counter-screen for streptokinase expression inhibitor project, luminescence, BacTiterGlo (AID 1915); assay type: functional, organism-based;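 note: potency for reduction of bacterial viability or growth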
[4] = system: Streptococcus sp. 'group A'; assay: growth inhibition of control SK(-) GAS strain, dose response, counter-screen for streptokinase expression inhibitor project, luminescence, kanamycin, BacTiterGlo, confirmation (AID 1900); assay type: functional, organism-based
[5] = target: FAD-linked sulfhydryl oxidase ALR (Homo sapiens, UniProt P55789); assay: inhibitors of human ALR sulfhydryl oxidase, dose response, biochemical, H2O2 detection, luminescence, cherry-pick (AID 493248)
[6] = target: T1, Rac GTPase-activating protein 1 (Homo sapiens, UniProt Q9H0H5); assay: MgcRacGAP GTPase-activating activity inhibitors, confirmation, biochemical, ADP Hunter fluorescence, primary and confirmatory (AID 624330); assay type: functional
T1 sequence (Q9H0H5 whole entry): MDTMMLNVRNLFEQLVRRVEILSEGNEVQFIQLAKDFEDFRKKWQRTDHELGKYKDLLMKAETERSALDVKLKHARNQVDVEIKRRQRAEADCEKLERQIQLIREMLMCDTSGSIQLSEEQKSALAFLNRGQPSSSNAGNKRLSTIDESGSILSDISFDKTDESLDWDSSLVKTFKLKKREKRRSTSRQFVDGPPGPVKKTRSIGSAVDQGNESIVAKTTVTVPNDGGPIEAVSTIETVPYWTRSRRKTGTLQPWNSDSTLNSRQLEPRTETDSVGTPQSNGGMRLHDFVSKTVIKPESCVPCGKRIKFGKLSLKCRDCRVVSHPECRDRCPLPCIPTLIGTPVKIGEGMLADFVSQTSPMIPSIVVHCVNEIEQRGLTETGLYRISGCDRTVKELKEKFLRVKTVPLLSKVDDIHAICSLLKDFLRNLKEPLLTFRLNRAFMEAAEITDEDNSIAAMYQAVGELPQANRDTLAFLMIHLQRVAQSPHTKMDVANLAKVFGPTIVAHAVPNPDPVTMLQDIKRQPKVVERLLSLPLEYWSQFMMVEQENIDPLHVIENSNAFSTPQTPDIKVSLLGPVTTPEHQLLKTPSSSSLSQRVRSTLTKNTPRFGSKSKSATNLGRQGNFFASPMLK

Cytochrome P450 2C19 = Cytochrome P450 2C19 (Homo sapiens, UniProt P33261); assay: Cytochrome panel assay with activity outcomes. Panel member name: p450-cyp2c19 Compounds with AC50 equal or less than 10 uM are considered active; assay type: functional
[7] = target: T2, Zinc finger protein mex-5 (Caenorhabditis elegans, UniProt Q9XUB2); assay: MEX-5/TCR-2 RNA interaction inhibitors, dose response, biochemical, C. elegans, fluorescence polarization (AID 1960)
T2 sequence (Q9XUB2 whole entry): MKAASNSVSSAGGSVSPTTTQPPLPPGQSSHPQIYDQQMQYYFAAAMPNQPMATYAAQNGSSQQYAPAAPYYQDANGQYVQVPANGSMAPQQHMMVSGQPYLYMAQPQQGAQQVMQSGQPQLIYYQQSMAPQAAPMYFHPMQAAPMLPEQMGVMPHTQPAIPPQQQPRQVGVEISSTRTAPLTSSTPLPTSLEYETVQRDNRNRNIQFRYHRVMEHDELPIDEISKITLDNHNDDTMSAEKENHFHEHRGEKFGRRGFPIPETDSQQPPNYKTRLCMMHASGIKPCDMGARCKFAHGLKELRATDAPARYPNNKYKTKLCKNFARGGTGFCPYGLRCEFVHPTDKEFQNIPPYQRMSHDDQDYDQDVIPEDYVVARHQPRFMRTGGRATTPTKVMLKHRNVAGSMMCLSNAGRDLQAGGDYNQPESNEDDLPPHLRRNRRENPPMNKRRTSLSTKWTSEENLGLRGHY

[8] = target: T3, RNA-binding protein pos-1 (Caenorhabditis elegans, UniProt G5EF15); assay: inhibitors of POS-1/mex-3 RNA binding, dose response, biochemical, fluorescence polarization (AID 1964);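 note: purified POS-1 fused to maltose binding protein made in E. coli; potency of compounds blocking POS-1 binding to fluorescent RNA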
T3 sequence (G5EF15 whole entry): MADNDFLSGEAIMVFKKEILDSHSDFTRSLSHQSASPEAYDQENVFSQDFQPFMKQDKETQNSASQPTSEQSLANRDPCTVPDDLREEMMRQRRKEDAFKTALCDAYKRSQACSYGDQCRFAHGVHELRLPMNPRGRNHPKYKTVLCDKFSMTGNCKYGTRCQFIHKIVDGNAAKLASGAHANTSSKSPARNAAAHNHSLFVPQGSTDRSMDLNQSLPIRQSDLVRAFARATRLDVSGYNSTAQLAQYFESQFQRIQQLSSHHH

FAD-linked sulfhydryl oxidase ALR, sequence (P55789 whole entry): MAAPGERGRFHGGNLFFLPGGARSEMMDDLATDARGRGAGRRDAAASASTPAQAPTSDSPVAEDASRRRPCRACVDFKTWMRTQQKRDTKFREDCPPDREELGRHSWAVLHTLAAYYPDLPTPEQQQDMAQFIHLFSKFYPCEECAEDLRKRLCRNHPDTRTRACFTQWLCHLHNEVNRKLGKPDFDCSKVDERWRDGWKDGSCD
Cytochrome P450 2C19, sequence (P33261 whole entry): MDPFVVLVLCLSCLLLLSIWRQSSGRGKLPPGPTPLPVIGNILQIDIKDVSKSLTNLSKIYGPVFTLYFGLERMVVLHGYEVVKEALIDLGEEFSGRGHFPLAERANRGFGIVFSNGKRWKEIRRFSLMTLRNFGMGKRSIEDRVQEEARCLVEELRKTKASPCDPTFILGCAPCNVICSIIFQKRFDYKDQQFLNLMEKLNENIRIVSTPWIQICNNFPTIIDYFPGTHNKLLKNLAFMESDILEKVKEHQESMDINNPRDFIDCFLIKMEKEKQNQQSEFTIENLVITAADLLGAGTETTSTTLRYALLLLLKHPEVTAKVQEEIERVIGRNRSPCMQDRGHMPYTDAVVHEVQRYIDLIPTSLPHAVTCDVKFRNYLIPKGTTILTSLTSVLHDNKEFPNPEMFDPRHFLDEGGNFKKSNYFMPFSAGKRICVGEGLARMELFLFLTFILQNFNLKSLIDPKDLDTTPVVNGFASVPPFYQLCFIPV

SMILES: CCO[C@H]1OC(C(=O)Nc2ccccc2)=C[C@@H](c2ccc(C(F)(F)F)cc2)[C@@H]1CCCO
CC50 [1]: 17.5 µM (active)

SMILES: O=[N+]([O-])c1ccc(/C=N/Nc2nc(N3CCCCCC3)nc(N3CCCCCC3)n2)o1
EC50 [2]: > 60 µM (not active) | EC50 [3]: 0.197 µM (active) | EC50 (Streptococcus): 2.35 µM (active) | EC50 [4]: 0.504 µM (active) | CC50 [1]: 11.6 µM (active)

AC50 [5]: 0.477 µM (active)
SMILES: CN1CC(=O)N(CC(=O)Nc2ccc(SC(F)F)cc2)C1=O

IC50 [6]: 90.9 µM (active)
SMILES: CCN(CC)c1ccc(NC(=O)CN(C)Cc2cccs2)cc1

SMILES: Clc1ccccc1C(Nc1ncccn1)Nc1ncccn1
AC50 (Cytochrome P450 2C19): inconclusive

AC50 [5]: 0.098 µM (active)
SMILES: CN1CCCC(CN2c3ccccc3Sc3ccccc32)C1 (centres undefined) [MEPAZINE ACETATE]

AC50 [5]: 8.71 µM (active)
SMILES: Cn1c(S)nnc1CSCc1ccc(Cl)cc1

SMILES: COc1ccc(-n2c(N)c(C(=O)Nc3c(C)n(C)n(-c4ccccc4)c3=O)c3nc4ccccc4nc32)cc1
CC50 [1]: > 50 µM (active)

IC50 [6]: 45.1 µM (active)
SMILES: Cc1ccc(CCC(=O)Nc2ccc(N(C)C)cc2)o1

SMILES: Clc1ccc(OCC#CCN2CCCCCC2)cc1
IC50 [6]: 184 µM (active)

AC50 (Cytochrome P450 2C19; read-out: AC50): 7.94 µM (inconclusive)
SMILES: COc1ccc(CCNC(=O)c2ccc3c(=O)n(Cc4ccco4)c(=S)[nH]c3c2)cc1OC

EC50 [7]: > 300 µM (not active) | EC50 [8]: > 300 µM (not active)
SMILES: COC(=O)c1cccc(-n2c(C)cc(C=O)c2C)c1C

IC50 [6]: 127 µM (active)
SMILES: COc1cc(CN2CCC(C(=O)NC3CCCC3)CC2)cc(Br)c1O

AC50 [5]: 0.394 µM (active)
SMILES: CCN(CCNC(=O)C1CCCN(S(=O)(=O)c2c[nH]cn2)C1)c1ccccc1 (centres undefined)

IC50 [6]: 69.6 µM (active)
SMILES: CCOc1cc(/C=N/NC(=O)CCCC(=O)NC2CCCCC2)ccc1O

SMILES: CC(C)(C)OC(=O)NCCCCCNC(=O)c1[nH]cnc1C(=O)N[C@@H](Cc1ccccc1)C(=O)OCc1ccccc1
CC50 [1]: 12.5 µM (active)

AC50 [5]: 2.33 µM (active)
SMILES: CN(C)c1ccc(C(C(=O)NC2CCCC2)N(C(=O)c2ccco2)C2CC2)cc1 (centres undefined)

SMILES: CN1CCC2(CC1)C(C#N)=C(N)NC(S)=C2C#N
EC50 [7]: 8.53 µM (active) | EC50 [8]: 8.05 µM (active)

SMILES: CCCN(Cc1nnc(-c2ccccc2Cl)o1)C(=O)c1oc2ccccc2c1C
CC50 [1]: 19.6 µM (active)

AC50 (Cytochrome P450 2C19; read-out: AC50): 14.1 µM (inconclusive)
SMILES: NC(=O)C1CCN(C(=O)CN2C(=O)c3ccccc3S2(=O)=O)CC1

AC50 (Cytochrome P450 2C19; read-out: AC50): 20 µM (inconclusive)
SMILES: COc1cccc(-c2nc(NCCN3CCOCC3)c3ccccc3n2)c1

SMILES: COc1ccc(/C=C2\SC(=S)N(CCC(=O)NC3CCCC3)C2=O)cc1OC
EC50 [7]: 153 µM (active) | EC50 [8]: > 300 µM (not active)

IC50 [6]: 63.2 µM (active)
SMILES: Cc1cc(C)nc(N/N=C/c2c[nH]c3ccccc23)n1

EC50 [7]: > 300 µM (not active) | EC50 [8]: > 300 µM (not active)
SMILES: CC(C)Cc1nnc(NC(=O)CCC(=O)N2CC(C)CC(C)C2)s1 (centres undefined)

AC50 [5]: 10.8 µM (active)
SMILES: NC(=O)C1CCN(C(=O)N2c3ccccc3Sc3ccccc32)CC1

IC50 [6]: 76 µM (active)
SMILES: CCOc1cc(/C=N\NC(=O)c2c(C)nc3ccccn23)ccc1O
